Experimental findings from patent publication US12673946B2, “Pyrimidin-4(3H)-one derivatives as TRPV4 antagonists” (RaQualia Pharma Inc., priority 2020, dated 2026) are described below.

The target in the assay is T1, human TRPV4 (Homo sapiens, UniProt Q9HBA0).
T1 construct: host or cells: tetracycline-inducible Flp-In T-REx 293 cells
Kind of assay: Hypotonicity-induced Ca2+ influx (Fluo-4, FDSS). The format is cell-based. In short, it runs like this: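 Flp-In T-REx 293 cells with tetracycline-induced human TRPV4, loaded with Fluo-4 for 60 min at 25 °C. Compound added 5 min before hypotonic mannitol/CaCl2 solution. Ca2+ signal recorded for 4.5 min on FDSS.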

Where [1] appears, read: Flp-In T-REx 293 cells expressing human TRPV4, examples listed under heading 'Human IC50<50 nM'.
Where [2] appears, read: Flp-In T-REx 293 cells stably expressing human TRPV4, compounds listed by potency bin (<10 nM Tables 96-1/96-2, <3 nM Table 97).

T1 sequence (Q9HBA0 whole entry): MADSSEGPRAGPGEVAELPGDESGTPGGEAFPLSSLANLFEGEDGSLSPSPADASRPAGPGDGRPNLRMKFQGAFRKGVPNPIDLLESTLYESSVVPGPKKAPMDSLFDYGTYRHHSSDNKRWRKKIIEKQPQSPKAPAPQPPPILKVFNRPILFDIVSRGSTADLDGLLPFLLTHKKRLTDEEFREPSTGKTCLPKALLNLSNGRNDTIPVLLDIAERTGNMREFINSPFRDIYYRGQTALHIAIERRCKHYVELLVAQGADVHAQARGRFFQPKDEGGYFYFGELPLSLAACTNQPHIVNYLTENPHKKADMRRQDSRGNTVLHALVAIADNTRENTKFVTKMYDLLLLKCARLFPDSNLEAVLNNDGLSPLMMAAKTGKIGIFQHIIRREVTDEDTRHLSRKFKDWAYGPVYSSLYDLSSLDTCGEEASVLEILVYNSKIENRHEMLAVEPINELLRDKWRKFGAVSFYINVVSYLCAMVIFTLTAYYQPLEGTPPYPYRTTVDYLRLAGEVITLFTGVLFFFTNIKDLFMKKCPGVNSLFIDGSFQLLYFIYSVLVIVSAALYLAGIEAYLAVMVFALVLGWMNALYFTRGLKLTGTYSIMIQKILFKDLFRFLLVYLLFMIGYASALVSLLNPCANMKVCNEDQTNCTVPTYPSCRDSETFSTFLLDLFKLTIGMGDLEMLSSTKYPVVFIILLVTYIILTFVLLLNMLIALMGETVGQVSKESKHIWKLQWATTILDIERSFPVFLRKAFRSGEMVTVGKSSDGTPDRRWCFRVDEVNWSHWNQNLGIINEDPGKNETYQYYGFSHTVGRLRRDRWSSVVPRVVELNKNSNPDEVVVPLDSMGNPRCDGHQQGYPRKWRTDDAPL

In the case of `O=C(C(O)c1cccc(-c2cccc(OC(F)(F)F)c2)c1)N1CCCc2nc(C3(c4ccccc4)CC3)[nH]c(=O)c2C1` (stereo not drawn) [49-7], the IC50 by setting is: under setting [1], less than 50 nM; under setting [2], less than 10 nM.
As for `O=C(C(O)c1cccc(-c2cccc(C(F)(F)F)c2)c1)N1CCCc2nc(C3(c4ccccc4)CC3)[nH]c(=O)c2C1` (stereo not drawn) [49-8], the concentration for half-maximal inhibition (IC50) reads like this: under setting [1], less than 50 nM; under setting [2], less than 10 nM.
On to `O=C(C(O)c1cccc(-c2cccc(F)c2)c1)N1CCCc2nc(C3(c4ccccc4)CC3)[nH]c(=O)c2C1` (stereo not drawn) [49-9], for which the 50% inhibitory concentration (IC50) runs as follows: under setting [1], less than 50 nM; under setting [2], less than 10 nM.
Consider `CC(C)(C)c1cccc(-c2cccc(C(O)C(=O)N3CCCc4nc(C5(c6ccccc6)CC5)[nH]c(=O)c4C3)c2)c1` (stereo not drawn) [49-10], for which the IC50 is less than 50 nM under setting [1] and less than 10 nM under setting [2].
`O=C(C(O)c1cccc(-c2ccc(OC(F)(F)F)cc2)c1)N1CCCc2nc(C3(c4ccccc4)CC3)[nH]c(=O)c2C1` (stereo not drawn) [49-11]: the IC50 is less than 50 nM under setting [1] and less than 10 nM under setting [2].
`O=C([C@H](O)c1cccc(-c2cccc(F)c2)c1)N1CCCc2nc(C3(c4ccccc4)CC3)[nH]c(=O)c2C1` [49-12] displayed an IC50 under setting [1] of less than 50 nM and an IC50 under setting [2] of less than 10 nM.
On to `O=C([C@H](O)c1cccc(-c2cccc(C(F)(F)F)c2)c1)N1CCCc2nc(C3(c4ccccc4)CC3)[nH]c(=O)c2C1` [49-13], for which the IC50 was less than 50 nM under setting [1] and less than 3 nM under setting [2].
Turning to `O=C([C@H](O)c1cccc(-c2cccc(OC(F)(F)F)c2)c1)N1CCCc2nc(C3(c4ccccc4)CC3)[nH]c(=O)c2C1` [49-14], the concentration for half-maximal inhibition (IC50) by setting is: under setting [1], less than 50 nM; under setting [2], less than 3 nM.
As for `O=C([C@H](O)c1cccc(-c2cccc(Cl)c2)c1)N1CCCc2nc(C3(c4ccccc4)CC3)[nH]c(=O)c2C1` [49-15], the IC50 reads like this: under setting [1], less than 50 nM; under setting [2], less than 3 nM.
Consider `CC(C)(C)c1cccc(-c2cccc([C@@H](O)C(=O)N3CCCc4nc(C5(c6ccccc6)CC5)[nH]c(=O)c4C3)c2)c1` [49-16], for which the 50% inhibitory concentration (IC50) reads like this: under setting [1], less than 50 nM; under setting [2], less than 3 nM.
`O=C([C@H](O)c1cccc(-c2ccnc(C(F)(F)F)c2)c1)N1CCCc2nc(C3(c4ccccc4)CC3)[nH]c(=O)c2C1` [49-17] returned a half-inhibitory concentration (IC50) under setting [1] of less than 50 nM and a half-inhibitory concentration (IC50) under setting [2] of less than 3 nM.
`O=C([C@H](O)c1cccc(-c2ccc(Cl)cc2)c1)N1CCCc2nc(C3(c4ccccc4)CC3)[nH]c(=O)c2C1` [49-18]: the IC50 by setting is: under setting [1], less than 50 nM; under setting [2], less than 3 nM.
In the case of `O=C([C@H](O)c1cccc(-c2cncc(C(F)(F)F)c2)c1)N1CCCc2nc(C3(c4ccccc4)CC3)[nH]c(=O)c2C1` [49-21], under setting [1], the IC50 is less than 50 nM.
Take `O=C([C@H](O)c1cccc(-c2cccc(C(F)(F)F)n2)c1)N1CCCc2nc(C3(c4ccccc4)CC3)[nH]c(=O)c2C1` [49-22]: the IC50 under setting [1] is less than 50 nM and the 50% inhibitory concentration (IC50) under setting [2] is less than 3 nM.
On to `O=C([C@H](O)c1cccc(-c2csc3ccccc23)c1)N1CCCc2nc(C3(c4ccccc4)CC3)[nH]c(=O)c2C1` [49-24], for which the half-maximal inhibitory concentration (IC50) runs as follows: under setting [1], less than 50 nM; under setting [2], less than 10 nM.
`O=C([C@H](O)c1cccc(-c2cc3ccccc3o2)c1)N1CCCc2nc(C3(c4ccccc4)CC3)[nH]c(=O)c2C1` [49-25] had a concentration for half-maximal inhibition (IC50) under setting [1] of less than 50 nM and an IC50 under setting [2] of less than 3 nM.
Turning to `O=C([C@H](O)c1cccc(-c2cccc(OCc3ccccc3)c2)c1)N1CCCc2nc(C3(c4ccccc4)CC3)[nH]c(=O)c2C1` [49-26], the 50% inhibitory concentration (IC50) is, setting by setting: under setting [1], less than 50 nM; under setting [2], less than 10 nM.
On the same counts, the results for `O=C([C@H](O)c1cccc(-c2cc(F)cc(Cl)c2)c1)N1CCCc2nc(C3(c4ccccc4)CC3)[nH]c(=O)c2C1` [49-27] are less than 50 nM and less than 3 nM.
Regarding `O=C([C@H](O)c1cccc(-c2cc3ccccc3s2)c1)N1CCCc2nc(C3(c4ccccc4)CC3)[nH]c(=O)c2C1` [49-28], the IC50 runs as follows: under setting [1], less than 50 nM; under setting [2], less than 3 nM.
On to `Cc1cc(Cl)cc(-c2cccc([C@@H](O)C(=O)N3CCCc4nc(C5(c6ccccc6)CC5)[nH]c(=O)c4C3)c2)c1` [49-29], for which the IC50 runs as follows: under setting [1], less than 50 nM; under setting [2], less than 10 nM.
As to `O=C([C@H](O)c1cccc(-c2ccc(F)c(Cl)c2)c1)N1CCCc2nc(C3(c4ccccc4)CC3)[nH]c(=O)c2C1` [49-30], the IC50 was less than 50 nM under setting [1] and less than 3 nM under setting [2].
`Cc1ccc(-c2cccc([C@@H](O)C(=O)N3CCCc4nc(C5(c6ccccc6)CC5)[nH]c(=O)c4C3)c2)cc1Cl` [49-31] returned an IC50 under setting [1] of less than 50 nM and an IC50 under setting [2] of less than 3 nM.
With `O=C([C@H](O)c1cccc(-c2cc(C(F)(F)F)cc(C(F)(F)F)c2)c1)N1CCCc2nc(C3(c4ccccc4)CC3)[nH]c(=O)c2C1` [49-32], the 50% inhibitory concentration (IC50) runs as follows: under setting [1], less than 50 nM; under setting [2], less than 10 nM.
Turning to `O=C([C@H](O)c1cccc(-c2ccc(OC(F)(F)F)cc2)c1)N1CCCc2nc(C3(c4ccccc4)CC3)[nH]c(=O)c2C1` [49-33], the half-maximal inhibitory concentration (IC50) is less than 50 nM under setting [1] and less than 3 nM under setting [2].
With `O=C([C@H](O)c1cccc(-c2cc(Cl)cc(OC(F)(F)F)c2)c1)N1CCCc2nc(C3(c4ccccc4)CC3)[nH]c(=O)c2C1` [49-34], the IC50 is less than 50 nM under setting [1] and less than 10 nM under setting [2].
For the compound `O=C([C@H](O)c1cccc(-c2cc(Cl)cc(Cl)c2)c1)N1CCCc2nc(C3(c4ccccc4)CC3)[nH]c(=O)c2C1` [49-35], the IC50 was less than 50 nM under setting [1] and less than 10 nM under setting [2].
With `O=C([C@H](O)c1cccc(-c2cc(Cl)cc(C(F)(F)F)c2)c1)N1CCCc2nc(C3(c4ccccc4)CC3)[nH]c(=O)c2C1` [49-36], the IC50 reads like this: under setting [1], less than 50 nM; under setting [2], less than 3 nM.
In the case of `O=C([C@H](O)c1cccc(-c2ccc(Cl)c(C(F)(F)F)c2)c1)N1CCCc2nc(C3(c4ccccc4)CC3)[nH]c(=O)c2C1` [49-37], the IC50 by setting is: under setting [1], less than 50 nM; under setting [2], less than 10 nM.
Regarding `O=C([C@H](O)c1cccc(-c2ccc(OCc3ccccc3)nc2)c1)N1CCCc2nc(C3(c4ccccc4)CC3)[nH]c(=O)c2C1` [49-38], the IC50 was less than 50 nM under setting [1] and less than 3 nM under setting [2].
Consider `O=C([C@H](O)c1cccc(-c2ccc3c(c2)OC(F)(F)O3)c1)N1CCCc2nc(C3(c4ccccc4)CC3)[nH]c(=O)c2C1` [49-39], for which the concentration for half-maximal inhibition (IC50) reads like this: under setting [1], less than 50 nM; under setting [2], less than 3 nM.
`O=C([C@H](O)c1cccc(-c2ccc(Cl)c(Cl)c2)c1)N1CCCc2nc(C3(c4ccccc4)CC3)[nH]c(=O)c2C1` [49-40]: the concentration for half-maximal inhibition (IC50) reads like this: under setting [1], less than 50 nM; under setting [2], less than 3 nM.
On the same counts, the results for `O=C([C@H](O)c1cccc(-c2ccc(Cl)c(OC(F)(F)F)c2)c1)N1CCCc2nc(C3(c4ccccc4)CC3)[nH]c(=O)c2C1` [49-41] are less than 50 nM and less than 10 nM.
With `O=C([C@H](O)c1cccc(-c2cccc(Cl)c2Cl)c1)N1CCCc2nc(C3(c4ccccc4)CC3)[nH]c(=O)c2C1` [49-42], the IC50 is less than 50 nM under setting [1] and less than 10 nM under setting [2].
Consider `O=C([C@H](O)c1cccc(-c2cc(Cl)ccc2Cl)c1)N1CCCc2nc(C3(c4ccccc4)CC3)[nH]c(=O)c2C1` [49-43], for which the IC50 by setting is: under setting [1], less than 50 nM; under setting [2], less than 10 nM.
Consider `N#Cc1cc(Cl)cc(-c2cccc([C@@H](O)C(=O)N3CCCc4nc(C5(c6ccccc6)CC5)[nH]c(=O)c4C3)c2)c1` [49-44], for which the IC50 runs as follows: under setting [1], less than 50 nM; under setting [2], less than 3 nM.
